The supplement of paper PMC11061612

Columns and labels:
[1] = tested on: EoL-1-cell (Acute Myeloid Leukemia); assay: combination Emax (second highest fraction inhibited in the dose matrix, 72 h); higher = more inhibition; extreme values may be limits of the assay
How it was run: (§1)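 Cell lines grown in DMEM/F12 or RPMI with 10% FBS were plated in 1536-well plates and held 24 hours at 37°C, 5% CO2 before 72 hours of exposure to two-drug dose matrices, with DMSO typically at 0.2%. CellTiter-Glo 2.0 luminescence gave viability, which was converted to inhibition. Vehicle wells were set to 0 and blank wells to 1. Combination Emax is the second-highest inhibition in the matrix, and Bliss excess is the observed combination effect minus the expected EA + EB − EA·EB, where EA and EB are the single-agent effects.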

[2] = tested on: Hs-766T (Pancreatic Carcinoma); assay: Bliss excess, mean over the matrix (fraction); higher = more synergy
How it was run: as §1

[3] = tested on: Ca9-22 (Head and Neck Carcinoma); assay: as above
How it was run: as §1

ACHN (Kidney Carcinoma) = assay: as above
How it was run: as §1

[4] = tested on: NCI-H358 (Lung Adenocarcinoma); assay: as above
How it was run: as §1

TGW (Neuroblastoma) = assay: as above
How it was run: as §1

EW-24 (Ewing's Sarcoma) = assay: as above
How it was run: as §1

[5] = tested on: KYSE-450 (Esophageal Squamous Cell Carcinoma); assay: as above
How it was run: as §1

[6] = tested on: LU-65 (Non-Small Cell Lung Carcinoma); assay: as above
How it was run: as §1

[7] = tested on: NUGC-3 (Gastric Carcinoma); assay: as above
How it was run: as §1

PWR-1E (Non-Cancerous) = assay: as above
How it was run: as §1

[8] = tested on: HSC-4 (Oral Cavity Carcinoma); assay: as above
How it was run: as §1

[9] = tested on: HGC-27 (Gastric Carcinoma); assay: as above
How it was run: as §1
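Throughout, for Bliss excess, mean over the matrix: after 72 h of two-drug dosing.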

| Structure (SMILES) | combination Emax [1] | Bliss excess [2] | Bliss excess [3] | Bliss excess (ACHN (Kidney Carcinoma)) | Bliss excess [4] | Bliss excess (TGW (Neuroblastoma)) | Bliss excess (EW-24 (Ewing's Sarcoma)) | Bliss excess [5] | Bliss excess [6] | Bliss excess [7] | Bliss excess (PWR-1E (Non-Cancerous)) | Bliss excess [8] | Bliss excess [9] |
| --- | --- | --- | --- | --- | --- | --- | --- | --- | --- | --- | --- | --- | --- |
| C=CCn1c(=O)c2cnc(Nc3ccc(N4CCN(C)CC4)cc3)nc2n1-c1cccc(C(C)(C)O)n1 [AZD1775] + CCc1c2c(nc3ccc(O)cc13)-c1cc3c(c(=O)n1C2)COC(=O)[C@]3(O)CC [SN-38] (first compound max 1 µM, partner max 0.3 µM) | 1 | 0.0017 | 0.0045 | -0.0634 | -0.0162 | -0.0592 | -0.113 | 0.0358 | -0.0127 | – | – | – | – |
| C=CCn1c(=O)c2cnc(Nc3ccc(N4CCN(C)CC4)cc3)nc2n1-c1cccc(C(C)(C)O)n1 [AZD1775] + Nc1ccn([C@@H]2O[C@H](CO)[C@@H](O)C2(F)F)c(=O)n1 [Gemcitabine] (first compound max 1 µM, partner max 0.3 µM) | 1 | -0.0742 | 0.0821 | -0.0338 | -0.0113 | -0.0355 | -0.0627 | 0.0717 | -0.0081 | – | – | – | – |
| CN(CCO)CC[C@H](CSc1ccccc1)Nc1ccc(S(=O)(=O)NC(=O)c2ccc(N3CCC([C@@H](O)c4ccccc4-c4ccc(Cl)cc4)CC3)cc2)cc1S(=O)(=O)C(F)(F)F [AZD4320] + CS(=O)(=O)CCNCc1ccc(-c2ccc3ncnc(Nc4ccc(OCc5cccc(F)c5)c(Cl)c4)c3c2)o1 [Lapatinib] (first compound max 1 µM, 7x7, partner max 10 µM) | 1 | -0.0586 | 0.0479 | -0.011 | – | 0.0959 | 0.0333 | -0.0459 | -0.0043 | – | – | – | – |
| Cc1c2c(nn1C)CSCc1cc(n(C)n1)CSc1cc(c3ccccc3c1)OCCCc1c(C(=O)O)n(C)c3c-2c(Cl)ccc13 [AZD5991] + CC(=O)O[C@H]1C(=O)[C@@]2(C)[C@H]([C@H](OC(=O)c3ccccc3)[C@]3(O)C[C@H](OC(=O)[C@H](O)[C@@H](NC(=O)c4ccccc4)c4ccccc4)C(C)=C1C3(C)C)[C@]1(OC(C)=O)CO[C@@H]1C[C@@H]2O [Paclitaxel] (first compound max 1 µM, 7x7, partner max 3 µM) | 1 | -0.0539 | 0.0065 | -0.0038 | -0.0405 | -0.0235 | 0.0289 | 0.0363 | -0.0944 | – | – | – | – |
| Cc1c2c(nn1C)CSCc1cc(n(C)n1)CSc1cc(c3ccccc3c1)OCCCc1c(C(=O)O)n(C)c3c-2c(Cl)ccc13 [AZD5991] + CS(=O)(=O)CCNCc1ccc(-c2ccc3ncnc(Nc4ccc(OCc5cccc(F)c5)c(Cl)c4)c3c2)o1 [Lapatinib] (first compound max 1 µM, 7x7, partner max 10 µM) | 1 | -0.0526 | 0.0614 | 0.0028 | -0.0019 | -0.0015 | – | -0.0108 | 0.0232 | – | – | – | – |
| Cc1c2c(nn1C)CSCc1cc(n(C)n1)CSc1cc(c3ccccc3c1)OCCCc1c(C(=O)O)n(C)c3c-2c(Cl)ccc13 [AZD5991] + Nc1ccn([C@@H]2O[C@H](CO)[C@@H](O)C2(F)F)c(=O)n1 [Gemcitabine] (first compound max 1 µM, 7x7, partner max 0.3 µM) | 1 | -0.0234 | 0.0042 | -0.0455 | -0.0276 | 0.007 | 0.0048 | -0.0267 | -0.0251 | – | – | – | – |
| C[C@@H]1COCCN1c1cc(C2([S@](C)(=N)=O)CC2)nc(-c2ccnc3[nH]ccc23)n1 [AZD6738] + C1CC(C1)(C(=O)[O-])C(=O)[O-].N.N.[Pt+2] [Carboplatin] (first compound max 10 µM, 7x7, partner max 10 µM) | 0.97 | -0.0536 | -0.0479 | -0.034 | -0.091 | -0.0765 | -0.0462 | -0.0386 | -0.0954 | – | – | – | – |
| C[C@@H]1COCCN1c1cc(C2([S@](C)(=N)=O)CC2)nc(-c2ccnc3[nH]ccc23)n1 [AZD6738] + Nc1ccn([C@@H]2O[C@H](CO)[C@@H](O)C2(F)F)c(=O)n1 [Gemcitabine] (first compound max 10 µM, 7x7, partner max 0.3 µM) | 1 | -0.0278 | 0.0536 | 0.0003 | 0.07 | 0.0013 | 0.0086 | 0.104 | 0.0191 | – | – | – | – |
| C[C@@H](Nc1cc(F)cc(F)c1)c1cc(C(=O)N(C)C)cc2c(=O)cc(N3CCOCC3)oc12 [AZD8186] + C1CN(CCC1(C(=O)N[C@@H](CCO)C2=CC=C(C=C2)Cl)N)C3=NC=NC4=C3C=CN4 [AZD5363] (first compound max 10 µM, 7x7, partner max 10 µM) | 0.816 | -0.0078 | -0.0508 | 0.04 | -0.0597 | -0.0683 | -0.0033 | 0.0035 | -0.0629 | – | – | – | – |
| C[C@@H](Nc1cc(F)cc(F)c1)c1cc(C(=O)N(C)C)cc2c(=O)cc(N3CCOCC3)oc12 [AZD8186] + CC(=O)c1c(C)c2cnc(Nc3ccc(N4CCNCC4)cn3)nc2n(C2CCCC2)c1=O [Palbociclib] (first compound max 10 µM, 7x7, partner max 10 µM) | 0.551 | 0.006 | 0.021 | 0.0335 | -0.0167 | -0.0397 | 0.0598 | -0.0404 | -0.0378 | – | – | – | – |
| C[C@@H](Oc1cc(-c2cnn(C3CCNCC3)c2)cnc1N)c1c(Cl)ccc(F)c1Cl [Crizotinib] + CC1=C(C(=CC=C1)Cl)NC(=O)C2=CN=C(S2)NC3=CC(=NC(=N3)C)N4CCN(CC4)CCO [Dasatinib] (first compound max 10 µM, 7x7, partner max 2 µM) | 1 | -0.074 | 0.0635 | 0.0041 | -0.0813 | -0.0593 | -0.0154 | 0.0276 | -0.0973 | – | – | – | – |
| C[C@@H](Oc1cc(-c2cnn(C3CCNCC3)c2)cnc1N)c1c(Cl)ccc(F)c1Cl [Crizotinib] + Cn1cnc2c(F)c(Nc3ccc(Br)cc3Cl)c(C(=O)NOCCO)cc21 [Selumetinib] (first compound max 10 µM, 7x7, partner max 10 µM) | 1 | -0.0074 | -0.0286 | 0.0277 | -0.106 | -0.0252 | -0.0464 | -0.0241 | 0.0003 | – | – | – | – |
| CS(=O)(=O)CCNCc1ccc(-c2ccc3ncnc(Nc4ccc(OCc5cccc(F)c5)c(Cl)c4)c3c2)o1 [Lapatinib] + Cn1cnc2c(F)c(Nc3ccc(Br)cc3Cl)c(C(=O)NOCCO)cc21 [Selumetinib] (first compound max 10 µM, 7x7, partner max 10 µM) | 0.832 | -0.0652 | 0.0498 | 0.0251 | -0.0044 | -0.079 | -0.0473 | -0.016 | -0.0113 | – | – | – | – |
| CS(=O)(=O)CCNCc1ccc(-c2ccc3ncnc(Nc4ccc(OCc5cccc(F)c5)c(Cl)c4)c3c2)o1 [Lapatinib] + NC1(c2ccc(-c3nc4ccn5c(=O)[nH]nc5c4cc3-c3ccccc3)cc2)CCC1 [MK-2206] (first compound max 10 µM, 7x7, partner max 10 µM) | 0.973 | -0.0629 | 0.005 | 0.0221 | -0.0733 | -0.0033 | 0.0118 | -0.022 | 0.0099 | 0.0527 | 0.0309 | 0.0003 | -0.0156 |
| O=C(c1cc(Cc2n[nH]c(=O)c3ccccc23)ccc1F)N1CCN(C(=O)C2CC2)CC1 [Olaparib] + CC1(C)CCC(CN2CCN(c3ccc(C(=O)NS(=O)(=O)c4ccc(NCC5CCOCC5)c([N+](=O)[O-])c4)c(Oc4cnc5[nH]ccc5c4)c3)CC2)=C(c2ccc(Cl)cc2)C1 [Venetoclax] (first compound max 10 µM, 7x7, partner max 1 µM) | 0.99 | -0.0885 | 0.0323 | -0.0214 | -0.054 | -0.0225 | -0.0087 | -0.0499 | -0.0323 | – | – | – | – |
| O=C(c1cc(Cc2n[nH]c(=O)c3ccccc23)ccc1F)N1CCN(C(=O)C2CC2)CC1 [Olaparib] + CN(CC[C@H](CSC1=CC=CC=C1)NC2=C(C=C(C=C2)S(=O)(=O)NC(=O)C3=CC=C(C=C3)N4CCC(CC4)[C@H](C5=CC=CC=C5C6=CC=C(C=C6)Cl)O)S(=O)(=O)C(F)(F)F)CCO [AZD4320] (first compound max 10 µM, 7x7, partner max 1 µM) | 1 | -0.0976 | 0.006 | -0.0164 | -0.0383 | -0.0479 | 0.0097 | -0.0434 | -0.0739 | – | – | – | – |
| O=C(c1cc(Cc2n[nH]c(=O)c3ccccc23)ccc1F)N1CCN(C(=O)C2CC2)CC1 [Olaparib] + COc1nnc2ccc(N3CCC(c4ccc(OCCN5CCN(C)C(=O)[C@H]5C)cc4)CC3)nn12 [AZD5153] (first compound max 10 µM, 7x7, partner max 1 µM) | 0.97 | -0.0857 | -0.0495 | -0.0367 | -0.026 | -0.054 | -0.0469 | -0.0606 | -0.0601 | – | – | – | – |
| O=C(c1cc(Cc2n[nH]c(=O)c3ccccc23)ccc1F)N1CCN(C(=O)C2CC2)CC1 [Olaparib] + Cc1c2c(nn1C)CSCc1cc(n(C)n1)CSc1cc(c3ccccc3c1)OCCCc1c(C(=O)O)n(C)c3c-2c(Cl)ccc13 [AZD5991] (first compound max 10 µM, 7x7, partner max 1 µM) | 1 | -0.0818 | 0.0247 | -0.0218 | -0.0513 | -0.032 | -0.0215 | -0.0409 | -0.0452 | – | – | – | – |
| Cc1nc(-c2cn3c(n2)-c2ccc(-c4cnn(C(C)(C)C(N)=O)c4)cc2OCC3)n(C(C)C)n1 [Taselisib] + O=C(Nc1ccc2[nH]nc(-c3ccncc3)c2c1)[C@@H]1CCN(CC(=O)N2CCN(c3ccc(-c4ncccn4)cc3)CC2)C1 [SCH772984] (first compound max 10 µM, 7x7, partner max 5 µM) | 1 | -0.0386 | 0.116 | 0.0219 | 0.0402 | 0.033 | 0.0424 | 0.0365 | 0.214 | – | – | – | – |
| CC1(C)CCC(CN2CCN(c3ccc(C(=O)NS(=O)(=O)c4ccc(NCC5CCOCC5)c([N+](=O)[O-])c4)c(Oc4cnc5[nH]ccc5c4)c3)CC2)=C(c2ccc(Cl)cc2)C1 [Venetoclax] + CS(=O)(=O)CCNCc1ccc(-c2ccc3ncnc(Nc4ccc(OCc5cccc(F)c5)c(Cl)c4)c3c2)o1 [Lapatinib] (first compound max 1 µM, 7x7, partner max 10 µM) | 0.986 | -0.0636 | 0.0232 | -0.0198 | -0.0321 | -0.0223 | -0.0183 | -0.0413 | 0.0159 | – | – | – | – |
